Data taken from patent US20130310347A1, “MULTI-MODALITY MOLECULAR IMAGING HIGH-THROUGHPUT ASSAY FOR IDENTIFYING HEAT SHOCK PROTEIN 90 (HSP90) INHIBITORS” (The Board of Trustees of the Leland Stanford Junior …, priority 2012, published 2013).

Columns and labels:
normal MEFs = assay: Alamar Blue cell proliferation; assay type: cell-based, mouse
Source text: (§1) CP9 had no effect on proliferation of normal MEFs. Since CP9 led to decrease in phosphorylated Akt (FIGS. 5A and 10A-10C), it was expected to inhibit glucose metabolism through relief of inhibition of glycogen synthase kinase […] (Nair & Olanow (2008) J. Biol. Chem. M707238200; Dandekar et al., (2007) J. Nucl. Med. 48: 602-607).

Hsp90α/p23 interactions = molecular target: T1, Hsp90α/p23 interactions (Homo sapiens, UniProt P07900); assay: HTS dose response, 293T cells stably expressing Hsp90α/p23 split RL reporters; assay type: cell-based; details: inhibition of bioluminescence signals by 50% vs carrier control; 8 point dose response 0.156-20 μM; 24 h
T1 construct: expressed in transfected cells; also with FL-eGFP reporter (293Tα-FG) and as xenografts in nude mice
Experimental: (§2) Novel Hsp90 inhibitors using a commercial 30,176 small molecule chemical compound library with unknown targets and molecular mechanisms (FIG. 9B) were also identified. 293T cells stably expressing Hsp90α/p23 or Hsp90β/p23 split RL reporters were treated with each compound at 8.3 μM.
(§3) Baseline complemented RL activities were determined 90 mins after addition of 20 μl of ENDUREN® (10 μM final concentration) (Promega, Madison, Wis.) using the Analyst GT (Molecular Device, Sunnyvale, Calif.), with an acquisition time of 0.2 sec per well. Cells were incubated with compounds for 24 h prior to re-determination of complemented RL activities, and normalized to the mean RL activities of untreated cells in columns 1-2. Another small molecule chemical library with 30,176 compounds (SPECS, Wakefield, R.I.) was also used in screening modulators of Hsp90(α/β)/p23 inhibitors (at 8.3 μM, one drug per well for initial screening). For dose response/confirmation assay the compounds were tested in duplicate in an 8 point (0.156-20 μM) dose response assay for RL activities for both Hps90(α/β)/p23 interactions. The effect of each compound on cell proliferation at 20 μM was determined using Cell Titer-Blue assay in duplicate wells. […]

Hsp90β/p23 interactions = molecular target: T2, Hsp90β/p23 interactions (Homo sapiens, UniProt P08238); assay: HTS dose response, 293T cells stably expressing Hsp90β/p23 split RL reporters; assay type: cell-based; details: inhibition of bioluminescence signals by 50% vs carrier control; 8 point dose response 0.156-20 μM; 24 h
T2 construct: expressed in transfected cells; also with FL-eGFP reporter (293Tβ-FG) and as xenografts in nude mice
T2 sequence (P08238 whole entry): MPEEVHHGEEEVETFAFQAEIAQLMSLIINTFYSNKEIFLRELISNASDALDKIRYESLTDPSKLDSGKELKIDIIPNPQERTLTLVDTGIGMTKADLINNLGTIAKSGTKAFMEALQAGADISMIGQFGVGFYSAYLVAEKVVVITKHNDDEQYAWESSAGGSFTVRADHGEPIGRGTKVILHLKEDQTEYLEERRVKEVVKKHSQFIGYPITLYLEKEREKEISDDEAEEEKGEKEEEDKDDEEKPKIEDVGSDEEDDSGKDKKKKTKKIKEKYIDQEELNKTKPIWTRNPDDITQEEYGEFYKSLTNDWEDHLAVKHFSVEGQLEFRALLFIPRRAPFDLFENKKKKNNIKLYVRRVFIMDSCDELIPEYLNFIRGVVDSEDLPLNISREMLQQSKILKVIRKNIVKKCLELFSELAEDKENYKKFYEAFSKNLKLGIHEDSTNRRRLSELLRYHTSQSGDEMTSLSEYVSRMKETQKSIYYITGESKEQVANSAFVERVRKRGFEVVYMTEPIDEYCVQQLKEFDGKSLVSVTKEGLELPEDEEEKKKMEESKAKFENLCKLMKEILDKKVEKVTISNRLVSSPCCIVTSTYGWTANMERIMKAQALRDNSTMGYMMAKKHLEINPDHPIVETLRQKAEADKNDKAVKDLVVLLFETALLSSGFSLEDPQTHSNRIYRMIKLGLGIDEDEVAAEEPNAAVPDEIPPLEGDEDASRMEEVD
Experimental: as §2, §3

U87-MG cells = assay: Alamar Blue cell proliferation; assay type: cell-based, human; details: 24 h
Experimental: FIG. 6A is a series of graphs illustrating the effect of CP9 on cell proliferation determined by an Alamar Blue assay. The indicated cancer cell lines were treated with different concentrations of CP9 for 24 h prior to incubation with Alamar blue for 4 h. The Hsp90 inhibitors PU-H71 and 17AAG were used as positive controls. Emissions at 570 nm in CP9-treated cells were normalized to that of carrier control-treated cells. Results are expressed as normalized cell proliferation±S.E.M.
as §1

V79 lung cancer cells = assay: Sensitivity to DOX, Alamar Blue assay; assay type: cell-based; details: DOX 0.31-10 μM with CP9 8 μM, 24 h
Experimental: (§4) FIGS. 13A-13C illustrate the inhibition of cell proliferation of DOX-resistant V79/ADR lung cancer cells by CP9 and the Hsp90 inhibitor PU-H71 in cell culture. V79 lung cancer cells and […] cells that are resistant to DOX were treated with DOX (0.31-10 μM) in the presence or absence of CP9 (8 μM) for 24 h before determination of cell number by an Alamar Blue assay.
(§5) Both Hsp90 isoforms (α and β) are expressed in cancer cells, but Hsp90β is constitutively expressed, whereas the expression of Hsp90α is highly inducible during stress and drug treatment. Using the genetically encoded split Renilla reporter system according to the disclosure, it was possible to decipher the individual contributions of each isoform in determining the sensitivity of Hsp90 inhibitors. It was reported that the transcription of MDR1 is regulated by HSF-1, which in turn is regulated by Hsp90α (Trepel et al., (2010) Nat. Rev. Cancer 10: 537-549). To determine the biological significance of CP9 selectivity in inhibiting Hsp90α/p23 interactions, V79 lung cancer cells and V79/ADR cells that overexpress multidrug-resistant protein and are insensitive to growth inhibition by doxorubicin (DOX) were used. V79 and V79/ADR cells were treated with DOX alone or in the presence of CP9. On the other hand, the addition of CP9 sensitized V79/ADR cells to DOX, as shown by the decrease in cell proliferation relative to treatment with DOX alone, as shown in FIG. 13B. […] The results also are consistent with the observation that derivatives of Hsp90 inhibitor peptides sensitize cancer cells with overexpression of MDR to epirubicin (a class of anthracyclines that includes DOX) (Molnar et al., (2007) In Vivo 21: 429-433).

[1] = system: DOX-resistant V79/ADR lung cancer cells; assay: Sensitivity to DOX, Alamar Blue assay; assay type: cell-based; details: DOX 0.31-10 μM with inhibitor (CP9 8 μM), 24 h
Experimental: as §4, §5

[2] = system: Hsp90(α/β)/p23 interactions; assay: BLI of lead compounds in intact 293T cells with split RL reporters; assay type: cell-based, human
Experimental: Bioluminescence signals were quantified and normalized for cell number and that of carrier control treated cells (right). Results were expressed as mean±S.E.M.
To determine the effect of lead compounds on disruption of Hsp90(α/β)/p23 interactions in intact cells, 3.5×10^4 293T cells stably transfected with split RL reporters as described in Chan et al., (2008) Cancer Res. 68: 216-226, were plated in each well in the 96-well black wall plate (Costar, Corning, N.Y.) and allowed to attach for 24 h, prior to treatment with different concentrations of the lead compounds for 24 h. The 10 μg/ml of ENDUREN® (in […] of cell culture medium) was added to each well for 1.5 h and RL activities were determined. BLI signals were normalized to that of cell number for each well (determined by Alamar Blue assay (Invitrogen, Carlsbad, Calif.)), prior to normalization to carrier control-treated cells.

Cc1cc(NC(=O)CSc2nc(-c3cccs3)cc(C(F)(F)F)n2)no1 [CP9, N-(5-methylisoxazol-3-yl)-2-(4-(thiophen-2-yl)-6-(trifluoromethyl)pyrimidin-2-ylthio)acetamide]
proliferation of normal MEFs (normal MEFs): no effect | IC50 (Hsp90α/p23 interactions): 3.2 µM | IC50 (Hsp90β/p23 interactions): 15.3 µM | inhibition of cell proliferation vs PU-H71 and 17-AAG (U87-MG cells): more effective than PU-H71 and 17-AAG | sensitivity of drug-sensitive V79 cells to DOX (V79 lung cancer cells): did not affect the sensitivity | sensitivity of drug-resistant V79/ADR cells to DOX [1]: partially restored the sensitivity | selectivity for Hsp90α/p23 BLI signals relative to Hsp90β/p23 interactions ([2]; 293T cells): more selective for inhibition of Hsp90α/p23 BLI signals | bioluminescence signals in 293T cells expressing Hsp90α/p23 and Hsp90β/p23 split RL reporters ([2]; 24 h, normalized for cell number and carrier control): dose-dependent decrease
